From US10034886B2, “GLP-1 receptor modulators” (Celgene International II SÀRL, priority 2014, dated 2018)

molecular target: T1, GLP-1R (Homo sapiens, UniProt P43220); assay: EC20 GLP-1(9-36) PAM cAMP assay: dose response of compound in the presence of fixed concentration of GLP-1(9-36); assay type: cell-based; conditions: GLP-1R CRE-bla CHO-K1 cells, compound dose response with fixed concentration of GLP-1(9-36), read-out: EC20 GLP-1(9-36) PAM EC50
T1 construct: host or cells: GLP-1R CRE-bla CHO-K1 cells
In short: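 Positive allosteric modulation read as cAMP accumulation: compound titrations (12 points) combined with an EC20 level of GLP-1(9-36) on CHO-K1 GLP-1R CRE-bla cells, IBMX present, 30 min, 37 °C, pH 7.4 buffer. Luminescence converted to cAMP via standards; non-linear fit gave EC50 and Emax.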

T1 sequence (P43220 24-463): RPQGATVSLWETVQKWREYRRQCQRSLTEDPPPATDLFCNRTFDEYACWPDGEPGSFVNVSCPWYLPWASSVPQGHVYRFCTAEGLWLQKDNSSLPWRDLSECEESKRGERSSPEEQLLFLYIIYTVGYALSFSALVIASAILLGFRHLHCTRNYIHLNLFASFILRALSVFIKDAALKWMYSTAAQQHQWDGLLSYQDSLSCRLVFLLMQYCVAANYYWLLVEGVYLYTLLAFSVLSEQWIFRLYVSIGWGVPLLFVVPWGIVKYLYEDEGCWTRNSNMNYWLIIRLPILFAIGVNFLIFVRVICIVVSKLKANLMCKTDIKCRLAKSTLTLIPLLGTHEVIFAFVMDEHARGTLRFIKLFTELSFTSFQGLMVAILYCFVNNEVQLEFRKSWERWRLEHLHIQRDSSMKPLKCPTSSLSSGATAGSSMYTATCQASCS
T1 sequence (P01275 100-127 partner limits assumed): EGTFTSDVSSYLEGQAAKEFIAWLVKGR

EC50 [nM]	SMILES
< 800	CCCc1ccc(-c2ccc(-c3cnc(-c4ccc(C[C@H](NC(=O)c5ccc(CC(C)C)cc5)C(=O)N5CC(C(=O)O)C5)cc4)nc3)c(F)c2)cc1 [Compound 1407]
< 800	CCC[C@H]1CC[C@H](C2CCN(c3cnc(-c4ccc(C[C@H](NC(=O)c5ccc(C(C)(C)C)s5)C(=O)NC(CN(C)C)C(=O)O)cc4)nc3)CC2)CC1 (stereo partly shown) [Compound 1459]
< 800	CCCc1ccc(-c2ccc(-c3cnc(-c4ccc(C[C@H](NC(=O)c5ccc(C6CC6)s5)C(=O)N5CC(C(=O)O)C5)cc4)nc3)c(F)c2)cc1 [Compound 1406]
< 800	CCC[C@H]1CC[C@H](C2CCN(c3cnc(-c4ccc(C[C@H](NC(=O)c5ccc(C(C)(C)C)s5)C(=O)N5CC(C(=O)O)C5)cc4)nc3)CC2)CC1 [Compound 1413, 1-((S)-2-(5-(tert-butyl)thiophene-2-carboxamido)-3-(4-(5-(4-((1s,4r)-4-propylcyclohexyl)piperidin-1-yl)pyrimidin-2-yl)phenyl)propanoyl)azetidine-3-carboxylic acid]
< 800	CC[C@H]1CC[C@H](c2ccc(-c3cnc(-c4ccc(C[C@H](NC(=O)c5ccc(S(C)(=O)=O)s5)C(=O)N5CC(C(=O)O)C5)cc4)nc3)cc2)CC1 [Compound 1278]
800 to 2500	CC(C)(C)c1ccc(C(=O)N[C@@H](Cc2ccc(-c3ncc(N4CCC(c5ccc(Cl)cc5)CC4)cn3)cc2)C(=O)N2CC(C(=O)O)C2)s1 [Compound 1478]
800 to 2500	CCCc1ccc(C(=O)N[C@@H](Cc2ccc(-c3ncc(-c4ccc(OCCCC(C)C)cc4)cn3)cc2)C(=O)N2CC(C(=O)O)C2)cc1 [Compound 1232]
800 to 2500	CC(C)CCCOc1ccc(-c2cnc(-c3ccc(C[C@H](NC(=O)c4ccn(C(C)(C)C)c4)C(=O)N4CC(C(=O)O)C4)cc3)nc2)cc1 [Compound 1242]
< 800	CCC[C@H]1CC[C@H](C2CCN(c3cnc(-c4ccc(CC(NC(=O)c5ccc(C(C)(C)C)s5)C(=O)NS(=O)(=O)C(C)C)cc4)nc3)CC2)CC1 (stereo partly shown) [Compound 1545]
< 800	CCCCc1ccc(-c2ccc(-c3cnc(-c4ccc(C[C@H](NC(=O)c5ccc(C(C)(C)C)s5)C(=O)N5CC(C(=O)O)C5)cc4)nc3)cc2)cc1 [Compound 1394]
800 to 2500	CCCc1ccc(C(=O)N[C@@H](Cc2ccc(-c3ncc(-c4ccc(OCCCC(C)C)cc4)cn3)cc2)C(=O)N2CC(C(=O)O)C2)s1 [Compound 1240]
< 800	CCC[C@H]1CC[C@H](C2CCN(c3cnc(-c4ccc(C[C@H](NC(=O)c5ccc(C(C)(C)C)s5)C(=O)N[C@H](Cc5c[nH]cn5)C(=O)O)cc4)nc3)CC2)CC1 [Compound 1446]
800 to 2500	C[C@@H](NC(=O)[C@H](Cc1ccc(-c2ncc(/C=C/c3ccc(C(F)(F)F)cc3)cn2)cc1)NC(=O)c1ccc(C(C)(C)C)s1)C(=O)O [Compound 1252]
2500 to 5000	C[C@@H](NC(=O)[C@H](Cc1ccc(-c2ncc(-c3ccc4c(c3)C(=O)c3ccccc3-4)cn2)cc1)NC(=O)c1ccc(C(C)(C)C)s1)C(=O)O [Compound 1290]
< 800	CCC[C@H]1CC[C@H](C2CCN(c3cnc(-c4ccc(C[C@H](NC(=O)c5ccc(C(C)(C)C)s5)C(=O)NC5(C(=O)O)CC5)cc4)nc3)CC2)CC1 [Compound 1453]
800 to 2500	CCC[C@H]1CC[C@@H](N2CCN(c3cnc(-c4ccc(C[C@H](NC(=O)c5ccc(C(C)(C)C)s5)C(=O)N5CC(C(=O)O)C5)cc4)nc3)CC2)CC1 [Compound 1436]

same assay, conditions: dose response of compound in presence of fixed concentration of GLP-1(9-36), GLP-1R CRE-bla CHO-K1 cells, read-out: EC20 GLP-1(9-36) PAM EC50

EC50 [nM]	SMILES
< 800	CCCCCCCOc1ccc(-c2cnc(-c3ccc(C[C@H](NC(=O)c4ccc(C(C)(C)C)s4)C(=O)N4C[C@@H](C#N)C[C@H]4C(=O)O)cc3)nc2)cc1 [Compound 640]
800 to 2500	CCCCCCCOc1ccc(-c2cnc(-c3ccc(C[C@H](NC(=O)c4ccc(C(C)(C)C)s4)C(=O)N[C@@H](Cc4cccnc4)C(=O)O)cc3)nc2)cc1 [Compound 616]
< 800	CCCCCCCOc1ccc(-c2cnc(-c3ccc(C[C@H](NC(=O)c4ccc(C(C)(C)C)cc4)C(=O)N[C@@H](Cc4ccccn4)C(=O)O)cc3)nc2)cc1 [Compound 542]
2500 to 5000	CC(C)Oc1cc(-c2cnc(-c3ccc(C[C@H](NC(=O)c4ccc(C(C)(C)C)s4)C(=O)N[C@H](C)C(=O)O)cc3)nc2)cc(Cl)c1OC(C)C [Compound 1017]
< 800	CCc1ccc(-c2ccc(-c3cnc(-c4ccc(C[C@H](NC(=O)c5ccc(C(C)(C)C)s5)C(=O)N[C@H](C)C(=O)O)cc4)nc3)c(F)c2)cc1 [Compound 1173]
5000 to 10000	CCCCCCCOc1ccc(-c2cnc(-c3ccc(C[C@H](NC(=O)c4ccc(C(C)(C)C)s4)C(=O)N[C@H](C(=O)O)C(C)(C)C)cc3)nc2)cc1 [Compound 620]
< 800	CCCCCCCOc1ccc(-c2cnc(-c3ccc(C[C@H](NC(=O)c4ccc(C(C)(C)C)s4)C(=O)N4CCC(F)(C(=O)O)C4)cc3)nc2)cc1 (stereo partly shown) [Compound 652]
2500 to 5000	CC(C)(C)c1ccc(C(=O)N[C@@H](Cc2ccc(-c3ncc(-c4ccc(OCCC5CCCC5)cc4)cn3)cc2)C(=O)NC(C(=O)O)C(O)c2ccccc2)s1 (stereo partly shown) [Compound 939]
800 to 2500	CCCCCCCOc1ccc(-c2cnc(-c3ccc(C[C@H](NC(=O)c4ccc(CC)s4)C(=O)NC(C(=O)O)C(O)c4ccccc4)cc3)nc2)cc1 (stereo partly shown) [Compound 957]
800 to 2500	CCCCCCCOc1ccc(-c2cnc(-c3ccc(C[C@H](NC(=O)c4ccc(C(C)(C)C)cc4)C(=O)N4CCC[C@H]4C(=O)O)cc3)nc2)cc1 [Compound 660]
800 to 2500	CCCCCCCOc1ccc(-c2cnc(-c3ccc(CC(NC(=O)c4ccc(C(C)(C)C)s4)C(=O)NCCCCC(=O)O)cc3)nc2)cc1 (stereo not shown) [Compound 459]
800 to 2500	CCCCCCCOc1ccc(-c2cnc(-c3ccc(C[C@H](NC(=O)c4ccc(C(C)(C)C)cc4)C(=O)N4C[C@H](O)C[C@@H]4C(=O)O)cc3)nc2)cc1 [Compound 585]
5000 to 10000	CCCCCCOCC1CCN(c2cnc(-c3ccc(C[C@H](NC(=O)c4ccc(C(C)(C)C)cc4)C(=O)NCCC(=O)O)cc3)nc2)CC1 [Compound 693]
5000 to 10000	CCCCCCCOc1ccc(-c2cnc(-c3ccc(C[C@H](NC(=O)c4ccc(C(C)(C)C)s4)C(=O)NC(C(=O)O)[C@H](C)c4ccccc4)cc3)nc2)cc1 (stereo partly shown) [Compound 896]
2500 to 5000	CC(C)COc1cc(-c2cnc(-c3ccc(C[C@H](NC(=O)c4ccc(C(C)(C)C)s4)C(=O)N[C@H](C)C(=O)O)cc3)nc2)cc(Cl)c1F [Compound 1011]
800 to 2500	CCCCCCCOc1ccc(-c2cnc(-c3ccc(C[C@H](NC(=O)c4ccc(C5CC5)s4)C(=O)N4CC[C@H](C(=O)O)C4)cc3)nc2)cc1 [Compound 865]
2500 to 5000	CCCCCCCOc1ccc(-c2cnc(-c3ccc(C[C@H](NC(=O)c4ccc(C(C)(C)C)cc4)C(=O)NCCC(=O)O)cc3)nc2)c(Cl)c1 [Compound 701]

EC50 [nM]	SMILES
< 800	CCCCCCCOc1ccc(-c2cnc(-c3ccc(C[C@H](NC(=O)c4ccc(Oc5ccccc5)cc4)C(=O)N[C@H](C)C(=O)O)cc3)nc2)cc1 [Compound 824]
< 800	CCCCCCCOc1ccc(-c2cnc(-c3ccc(C[C@H](NC(=O)c4ccc(C(C)(C)C)s4)C(=O)N[C@@H](CC(=O)NCCO)C(=O)O)cc3)nc2)cc1 [Compound 521]
5000 to 10000	CC(C)Oc1cc(-c2cnc(-c3ccc(C[C@H](NC(=O)c4ccc(C(C)(C)C)s4)C(=O)N[C@H](C)C(=O)O)cc3)nc2)ccc1OC(F)(F)F [Compound 1013]
< 800	CCCCCCCOc1ccc(-c2cnc(-c3ccc(C[C@H](NC(=O)c4ccc(C(C)(C)C)s4)C(=O)NC(C(=O)O)c4c(C)n[nH]c4C)cc3)nc2)cc1 (stereo partly shown) [Compound 598]
< 800	CCCCCCCOc1ccc(-c2cnc(-c3ccc(C[C@H](NC(=O)c4ccc(C(C)(C)C)s4)C(=O)NC(COC)C(=O)O)cc3)nc2)cc1 (stereo partly shown) [Compound 595]
< 800	C[C@@H](NC(=O)[C@H](Cc1ccc(-c2ncc(-c3ccc(C4CCC(F)(F)CC4)cc3)cn2)cc1)NC(=O)c1ccc(C(C)(C)C)s1)C(=O)O [Compound 1142]
5000 to 10000	C[C@@H](NC(=O)[C@H](Cc1ccc(-c2ncc(-c3cc4ccccc4cc3O)cn2)cc1)NC(=O)c1ccc(C(C)(C)C)s1)C(=O)O [Compound 1008]
2500 to 5000	CC(C)(C)COc1ccc(-c2cnc(-c3ccc(C[C@H](NC(=O)c4ccc(C(C)(C)C)s4)C(=O)N4CC[C@H](C(=O)O)C4)cc3)nc2)cc1 [Compound 767]
800 to 2500	CCCCCCCOc1ccc(-c2cnc(-c3ccc(C[C@H](NC(=O)c4ccc(CC(C)C)s4)C(=O)N4CCC[C@H]4C(=O)O)cc3)nc2)cc1 [Compound 1080]
2500 to 5000	CCCCCCCOc1ccc(-c2cnc(-c3ccc(C[C@H](NC(=O)c4ccc(C(C)(C)C)c(OC)c4)C(=O)N4CC(C(=O)O)C4)cc3)nc2)cc1 [Compound 1120]
< 800	CCCCCCCOc1ccc(-c2cnc(-c3ccc(C[C@H](NC(=O)c4ccc(C(C)(C)C)cc4)C(=O)NC(C(=O)O)c4ccc(OC)cc4)cc3)nc2)cc1 (stereo partly shown) [Compound 543]
800 to 2500	CCCCOc1ccc(-c2cnc(-c3ccc(C[C@H](NC(=O)c4ccc(C(C)(C)C)s4)C(=O)N[C@H](C)C(=O)O)cc3)nc2)cc1 [Compound 733]
< 800	C[C@@H](NC(=O)[C@H](Cc1ccc(-c2ncc(-c3ccc(OCC(C)(C)C)cc3)cn2)cc1)NC(=O)c1ccc(C(C)(C)C)s1)C(=O)O [Compound 739]
800 to 2500	CCCCCCCOc1ccc(-c2ncc(-c3ccc(C[C@H](NC(=O)c4ccc(C(C)(C)C)cc4)C(=O)O)cc3)nn2)cc1 [Compound 275]
800 to 2500	CCCCCCCOc1ccc(-c2ccc(-c3ccc(C[C@H](NC(=O)c4ccc(C(C)(C)C)cc4)C(=O)O)cc3)nn2)cc1 [Compound 273]
2500 to 5000	CCCCCCCOc1ccc(-c2cnc(-c3ccc(C[C@H](NC(=O)c4ccc(C(C)(C)C)s4)C(=O)NC(C(=O)O)C(O)C4CCCCC4)cc3)nc2)cc1 (stereo partly shown) [Compound 914]
